Test results from patent US9636329B2, “Methods of treating cancer with glut inhibitors and oxidative phosphorylation inhibitors” (Northwestern University, priority 2012, dated 2017).

Experiments:
U266 cells = test: Cell death by DAPI staining with doxorubicin at 11 mM or 0.5 mM glucose (FIG. 1C); assay type: cell-based; conditions: resistant U266 cells; glucose-free culture (0.5 mM vs 11 mM glucose); 48 hours
Experimental: (§1) FIG. 1. Glucose metabolism sustains myeloma cell proliferation, viability and promotes chemoresistance: (A) Primary myeloma cells, normal B lymphocytes (NBL) and four MM cell lines were cultured in medium containing 0 or 5 mM glucose for 48 (NBL, MM cell lines) or 72 (MM Patient) hours. Cell viability was determined by flow cytometric analysis of AnnexinV/DAPI staining and normalized to 5 mM samples. Data are means±SEM (n=2 for MM cell lines and NBL. n=1 for MM Patient sample). (B) MM cell lines were cultured in various glucose concentrations for 72 hours. Viable cell quantities were determined by MTS assay (represented by absorbance at 490 nm) and normalized to 5 mM samples. U266 cells (C) and normal PBMC (D) were cultured in 11 mM or 0.5 mM glucose-containing medium for 48 hours in the presence of the indicated concentrations of doxorubicin. Cell death was determined by OAPI staining. […] Glucose consumption rates and lactate production rates were determined and normalized to control shRNA-expressing cells. (G-I) Cells from part (E) were analyzed for viability and proliferation. (J) JJN3 cells transduced with control or GLUT1-targeted shRNA and analyzed for viability and proliferation. Viable cell densities are expressed as fold change relative to the day 0 reading of control shRNA-expressing cells. Cells from parts G-J were evaluated for viability via trypan blue exclusion. […]

normal PBMC = test: Cell death by DAPI staining with doxorubicin at 11 mM or 0.5 mM glucose (FIG. 1D); assay type: cell-based; conditions: 48 hours
Experimental: as §1

MM cells = test: Viability of MM cells, glucose deprivation / ritonavir / metformin; assay type: cell-based; conditions: absence of glucose; metformin 5 mM; 72 hrs
Excerpt: (§2) To investigate whether mitochondrial oxidative phosphorylation can render MM cells resistant to glucose-deprivation we treated cells with metformin. which is a known mitochondrial complex 1 inhibitor [25-27]).

L363 cells [1] = test: Viability of MM cell lines by Annexin/DAPI staining (FIG. 2); assay type: cell-based; conditions: glucose-deprived L363 cells + galactose 10 mM; metformin 5 mM; 72 hrs
Excerpt: as §2

JJN3 cells [2] = conditions: JJN3 cultured in the absence of glucose; metformin 5 mM; 72 hrs
Excerpt: as §2

NCI-60 cell lines = test: NCI-60 panel viability, 48 hr MTS assay (FIG. 5); assay type: cell-based; conditions: read-out: median reduction of viability
Excerpt: FIG. 5. […] 48 hr MTS assay, n=3+/−SEM, p<0.05
GLUT4 activity may be prevalent across multiple cancers. To examine the dependency of other cancers on GLUT4 activity, we utilized the NCI-60 cancer cell line panel. […] The NCI-60 lines are representative of genetic heterogeneity within each cancer group. Therefore, it is possible that we may detect a role for GLUT4 in a subset of cancers within each group connected to a specific genotype.

L363 cells [3] = test: Oxygen consumption rate (OCR), SeaHorse XF24 bioanalyzer; assay type: cell-based; conditions: sensitive L363 cells; ritonavir 20 uM; 17 hrs
Experimental: (§3) FIG. 3. […] Cellular viability was assessed before OCR measurements and 400,000 viable cells were plated in 5 replicates. Result is representative of an n=3.

JJN3 cells [4] = test: as above; assay type: cell-based; conditions: resistant JJN3 cells; ritonavir alone
Experimental: as §3

GLUT4 = target: T1, GLUT4 (Homo sapiens, UniProt P14672); conditions: cited from earlier work
T1 sequence (P14672 1-509): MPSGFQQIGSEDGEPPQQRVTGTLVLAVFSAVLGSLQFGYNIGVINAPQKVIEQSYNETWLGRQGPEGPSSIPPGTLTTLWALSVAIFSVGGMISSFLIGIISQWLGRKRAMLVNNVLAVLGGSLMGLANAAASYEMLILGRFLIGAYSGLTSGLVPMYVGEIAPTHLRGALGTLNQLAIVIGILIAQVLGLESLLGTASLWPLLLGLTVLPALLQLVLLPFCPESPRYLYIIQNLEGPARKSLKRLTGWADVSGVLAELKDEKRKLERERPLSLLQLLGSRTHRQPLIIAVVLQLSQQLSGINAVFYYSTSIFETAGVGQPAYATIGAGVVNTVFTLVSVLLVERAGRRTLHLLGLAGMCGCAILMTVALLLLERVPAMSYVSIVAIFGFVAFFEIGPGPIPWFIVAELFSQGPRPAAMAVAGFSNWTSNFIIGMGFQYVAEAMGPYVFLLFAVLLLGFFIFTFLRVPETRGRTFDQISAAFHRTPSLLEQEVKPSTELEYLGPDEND

[5] = achieved in humans; read-out: Cmax plasma concentration; cited from earlier work
MM = test: Ritonavir anti-myeloma effects in myeloma cell lines and patient samples; assay type: cell-based
GLUT1 = target: T2, GLUT1 (Homo sapiens, UniProt P11166); conditions: cited from earlier work
T2 sequence (P11166 1-492): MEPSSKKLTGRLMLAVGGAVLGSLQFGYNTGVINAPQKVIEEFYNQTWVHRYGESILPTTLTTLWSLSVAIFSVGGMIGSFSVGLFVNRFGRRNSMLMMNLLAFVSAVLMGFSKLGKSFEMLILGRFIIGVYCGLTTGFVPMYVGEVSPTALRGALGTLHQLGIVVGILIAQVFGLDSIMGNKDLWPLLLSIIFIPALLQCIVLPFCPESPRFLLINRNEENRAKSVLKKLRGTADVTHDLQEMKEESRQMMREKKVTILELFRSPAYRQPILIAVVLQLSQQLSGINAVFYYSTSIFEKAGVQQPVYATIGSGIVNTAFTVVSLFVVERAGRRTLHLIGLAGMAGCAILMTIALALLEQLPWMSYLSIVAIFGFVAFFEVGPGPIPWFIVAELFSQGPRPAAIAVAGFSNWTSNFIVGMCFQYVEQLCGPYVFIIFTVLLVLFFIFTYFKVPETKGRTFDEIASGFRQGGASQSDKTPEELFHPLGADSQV

## COc1cccc2c1C(=O)c1c(O)c3c(c(O)c1C2=O)C[C@@](O)(C(=O)CO)C[C@@H]3O[C@H]1C[C@H](N)[C@H](O)[C@H](C)O1 [doxorubicin]
U266 cells
  sensitivity to doxorubicin (cell death): sensitizes
Normal PBMC
  impact of doxorubicin on normal PBMC (cell death): not impacted

## CN(C)C(=N)N=C(N)N [metformin]
MM cells
  sensitization of glucose deprived MM cells to metformin (viability): sensitized to metformin
L363 cells [1]
  reversal of galactose rescue of viability: reverses the metabolic rescue provided by galactose
JJN3 cells [2]
  sensitization of glucose deprived cells to metformin (viability): sensitized to metformin

## CC(C)c1nc(CN(C)C(=O)N[C@H](C(=O)N[C@@H](Cc2ccccc2)C[C@H](O)[C@H](Cc2ccccc2)NC(=O)OCc2cncs2)C(C)C)cs1 [ritonavir]
NCI-60 cell lines
  cytotoxicity at 20 µM: ≥ 50%
L363 cells [3]
  oxygen consumption rate (OCR): significant reduction in OCR
JJN3 cells [4]
  oxygen consumption rate (OCR): increase in oxygen consumption rate
GLUT4
  inhibition of cytoplasmic glucose binding site: competitively inhibit
[5]
  Cmax: 16 µM
MM
  chemosensitization of resistant MM to doxorubicin: chemosensitizing
MM; physiologically achievable doses of ritonavir
  glucose inhibitory and growth inhibitory effects in MM: significant glucose inhibitory and growth inhibitory effects
GLUT1
  inhibition of cytoplasmic glucose binding site: competitively inhibit
